Test: mn = molality of the nth substance listed, in mol/kg
Details: 101 kPa, Liquid

NCC(=O)O [2-aminoacetic acid] + O
Details	mass density [kg/m3]
288.15 K, m1 = 0.07326	1001.51
288.15 K, m1 = 0.1458	1003.85
288.15 K, m1 = 0.2326	1006.63
288.15 K, m1 = 0.2824	1008.21
288.15 K, m1 = 0.3277	1009.64
288.15 K, m1 = 0.4371	1013.07
298.15 K, m1 = 0.1536	1001.88
298.15 K, m1 = 0.2528	1004.96
298.15 K, m1 = 0.302	1006.47
298.15 K, m1 = 0.3469	1007.84
298.15 K, m1 = 0.4593	1011.25
308.15 K, m1 = 0.07746	993.053
308.15 K, m1 = 0.2534	998.473
308.15 K, m1 = 0.3017	999.939
308.15 K, m1 = 0.3466	1001.29
308.15 K, m1 = 0.4586	1004.65
318.15 K, m1 = 0.1525	994.942
318.15 K, m1 = 0.2564	998.093
318.15 K, m1 = 0.3091	999.679
318.15 K, m1 = 0.3656	1001.36
318.15 K, m1 = 0.4809	1004.79

[Cl-].[Cl-].[Zn+2] [zinc chloride] + O
mass density [kg/m3]
Details	288.15 K	298.15 K	308.15 K	318.15 K
m1 = 0.1	1011.64	1009.38	1005.93	1002.03
m1 = 0.5	1058.86	1055.44	1047.95	1043.29
m1 = 1	1113.88	1106.55	1097.59	1090.83
m1 = 1.5	1160.53	1152.82	1142.54	1135.27

From the NIST ThermoML archive (doi:10.1021/je8001464)
